In patent US20210221784A1, “COMPOUNDS AND COMPOSITIONS FOR THE TREATMENT OF PAIN” (Université de Strasbourg, priority 2018, published 2021):

Tests used:
hNPFFR1 = molecular target: T1, hNPFFR1 (Homo sapiens, UniProt Q9GZQ6); assay: Radioligand binding competition, membranes from CHO cells expressing hNPFFR1; details: 0.015 nM [D-Tyr1[125I], N-MePhe3]-NPFF, 1 hr at 25° C., read-out: NPFF1-R Ki
T1 construct: expressed in transfected cells; membranes
Procedure: (§1) Competition experiments with membranes from CHO cells stably expressing hNPFFR1 and hNPFFR2 were performed essentially as described in Elhabazi, K., et al. Neuropharmacology, 2013. 75C, 164-171., Briefly, hNPFFR1 or hNPFFR2 membranes (5 to 10 μg of proteins) were incubated (1 hr at 25° C.; 0.25 mL total volume) with 0.015 nM [D-Tyr1[125I], N-MePhe3]-NPFF (Hartmann Analytic GmbH) in 50 mM HEPES (pH 7.4), 1 mM CaCl2, 1 mM MgCl2 and 0.1% bovine serum albumin. Non-specific binding was determined in the presence of 10 μM RFRP-3. Incubation was terminated by rapid filtration through a 96-well GF/B unifilter apparatus (Perkin Elmer Life and Analytical Sciences, Courtaboeuf, France). Unifilters were washed five times with binding buffer, then dried for 1 h at 65° C. After addition of 40 μL scintillation cocktail (Microscint-O, Perkin Elmer) per well, bound radioactivity was determined on a TopCount scintillation counter (Perkin Elmer).

hNPFFR2 = molecular target: T2, hNPFFR2 (Homo sapiens, UniProt Q9Y5X5); assay: Radioligand binding competition, membranes from CHO cells expressing hNPFFR2; details: 0.015 nM [D-Tyr1[125I], N-MePhe3]-NPFF, 1 hr at 25° C., read-out: NPFF2-R Ki
T2 construct: expressed in transfected cells; membranes
Procedure: as §1

[1] = molecular target: T3, human NPFFR1 (hNPFFR1) receptor (Homo sapiens, UniProt Q9GZQ6); assay: Human NPFFR1 evaluation using BRET biosensors in HEK-293 T cells; type: cell-based; details: hNPFFR1 in HEK-293 T cells, stimulated by EC80 RFRP-3, read-out: IC50 of antagonist activity
T3 construct: expressed in transfected cells; host or cells: HEK-293 T cells, transient co-transfection
Outline: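 HEK-293 T cells transiently co-expressing hNPFFR1, GαoB and a Gi-effector BRET biosensor pair; agonist read after 10 min compound alone, then antagonism after EC80 RFRP-3 for 10 min. IC50 from 20-point curves over 6 logs, duplicates in two independent experiments.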

T1 sequence (Q9GZQ6 whole entry): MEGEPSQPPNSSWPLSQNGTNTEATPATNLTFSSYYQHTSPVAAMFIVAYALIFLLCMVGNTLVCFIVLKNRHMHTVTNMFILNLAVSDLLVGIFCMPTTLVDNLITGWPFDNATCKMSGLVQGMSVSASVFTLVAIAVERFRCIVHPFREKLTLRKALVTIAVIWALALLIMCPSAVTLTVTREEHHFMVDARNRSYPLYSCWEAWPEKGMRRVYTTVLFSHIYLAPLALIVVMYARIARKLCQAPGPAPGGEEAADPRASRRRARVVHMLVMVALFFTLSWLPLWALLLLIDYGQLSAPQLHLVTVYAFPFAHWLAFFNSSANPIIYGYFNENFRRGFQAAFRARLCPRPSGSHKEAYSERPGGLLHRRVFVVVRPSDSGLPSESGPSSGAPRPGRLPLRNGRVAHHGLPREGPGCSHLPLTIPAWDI
T3 sequence (Q9GZQ6 whole entry): as above
T2 sequence (Q9Y5X5 whole entry): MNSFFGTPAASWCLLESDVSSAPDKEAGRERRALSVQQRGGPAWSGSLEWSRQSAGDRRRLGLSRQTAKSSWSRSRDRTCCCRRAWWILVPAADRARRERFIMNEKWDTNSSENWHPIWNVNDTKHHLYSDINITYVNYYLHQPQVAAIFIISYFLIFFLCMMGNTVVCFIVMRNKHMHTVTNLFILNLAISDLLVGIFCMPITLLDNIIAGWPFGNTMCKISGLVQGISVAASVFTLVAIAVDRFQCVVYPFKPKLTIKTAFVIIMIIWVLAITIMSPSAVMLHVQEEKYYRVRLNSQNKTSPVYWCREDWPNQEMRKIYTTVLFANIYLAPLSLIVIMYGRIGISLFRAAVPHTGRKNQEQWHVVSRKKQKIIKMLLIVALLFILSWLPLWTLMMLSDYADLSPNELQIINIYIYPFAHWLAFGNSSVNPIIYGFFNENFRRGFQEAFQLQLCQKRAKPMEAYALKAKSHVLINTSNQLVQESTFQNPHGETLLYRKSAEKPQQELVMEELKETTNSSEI

Structure (SMILES) | Ki (hNPFFR1) [nM] | Ki (hNPFFR2) [nM] | IC50 [1] [nM]
COc1ccc(-c2ccc(N)nc2N)c(OC)c1 [Compound 2m] | 45.7 | 1870 | > 1000
Nc1ccc(Cc2ccc(Cl)cc2Cl)c(N)n1 [Compound 10f, 3-(2,4-dichlorobenzyl)pyridine-2,6-diamine] | 3.7 | 500 | 100 to 500
Nc1ccc(-c2cc(Cl)cc(Cl)c2)c(N)n1 [Compound 1o, 3-(3,5-dichlorophenyl) pyridine-2,6-diamine] | ~500 | ~5000 | > 1000
COCc1nc(N)ccc1-c1ccccc1OC [Compound 6e, 6-(methoxymethyl)-5-(2-methoxyphenyl)pyridin-2-amine] | 461 | 18600 | > 1000
Nc1ccc(-c2ccccc2O)c(N)n1 [Compound 2a, 2-(2,6-diaminopyridin-3-yl)phenol] | 11.8 | 1100 | 500 to 1000
Nc1ccc(-c2cccc(Cl)c2)c(N)n1 [Compound 1h, 3-(3-chlorophenyl)pyridine-2,6-diamine] | 90 | 300 | 500 to 1000
Cc1nc(N)ccc1-c1cccc(Cl)c1Cl [Compound 6b, 5-(2,3-dichlorophenyl)-6-methylpyridin-2-amine] | 81.4 | 2000 | 500 to 1000
CC(C)c1ccccc1-c1ccc(N)nc1N [Compound 1e, 3-(2-isopropylphenyl) pyridine-2,6-diamine] | 8 | 980 | 100 to 500
Cc1ccccc1-c1c(C)cc(N)nc1N [Compound 8b, 4-methyl-3-(o-tolyl)pyridine-2,6-diamine] | 183 | 4600 | > 1000
Nc1ccc(Cc2ccc(F)cc2)c(N)n1 [Compound 10b, 3-(4-fluorobenzyl)pyridine-2,6-diamine] | 122 | 4200 | > 1000
CNc1nc(N)ccc1-c1cccc(Cl)c1Cl [Compound 5a, 3-(2,3-dichlorophenyl)-N2-methylpyridine-2,6-diamine] | 81.2 | 2300 | > 1000
COc1ccccc1-c1ccc(N)nc1C1CC1 [Compound 6i, 6-cyclopropyl-5-(2-methoxyphenyl)pyridin-2-amine] | 31 | 1400 | 500 to 1000
COCc1ccccc1-c1ccc(N)nc1N [Compound 1g, 3-(2-(methoxymethyl)phenyl) pyridine-2,6-diamine] | 58 | 1200 | 500 to 1000
CCCCOc1ccccc1-c1ccc(N)nc1N [Compound 2e, 3-(2-butoxyphenyl)pyridine-2,6-diamine] | 10.5 | 1800 | 100 to 500
CCNc1nc(N)ccc1-c1cccc(Cl)c1Cl [Compound 5b, 3-(2,3-dichlorophenyl)-N2-ethylpyridine-2,6-diamine] | 79.2 | 2200 | 500 to 1000
Nc1ccc(-c2cc(Cl)ccc2Cl)c(N)n1 [Compound 1l, 3-(2,5-dichlorophenyl) pyridine-2,6-diamine] | 335 | 26700 | 100 to 500
Nc1ccc(-c2ccc(Cl)cc2Cl)c(N)n1 [Compound 1k, 3-(2,4-dichlorophenyl) pyridine-2,6-diamine] | 28 | 1180 | 100 to 500
Nc1ccc(-c2ccc(Cl)cc2)c(N)n1 [Compound 1i, 3-(4-chlorophenyl)pyridine-2,6-diamine] | 786 | 8800 | > 1000
CCCc1nc(N)ccc1-c1ccccc1OC [Compound 6g, 5-(2-methoxyphenyl)-6-propylpyridin-2-amine] | 6.3 | 470 | 100 to 500
Nc1ccc(Cc2ccccc2)c(N)n1 [Compound 10a, 3-benzylpyridine-2,6-diamine] | 76 ± 12 | 2800 | > 1000
CCc1nc(N)ccc1-c1cccc(Cl)c1Cl [Compound 6c, 5-(2,3-dichlorophenyl)-6-ethylpyridin-2-amine] | 25 | 800 | 500 to 1000
